In patent US10787416B1, “Crystals of intermediate for benzindene prostaglandins and methods for preparation thereof” (CHIROGATE INTERNATIONAL INC., priority 2020, dated 2020):

Assays:
[1] = Storage stability of the crystalline forms at room temperature; format: physicochemical; conditions: room temperature for six months
[2] = Crystalline form conversion by grinding; format: physicochemical; conditions: grinding at room temperature for about 10 minutes

| SMILES | stability (other crystalline forms or degraded products of impurities) [1] | crystalline form transformation on grinding [2] |
| --- | --- | --- |
| CCCCC[C@H](O)CC[C@@H]1[C@H]2Cc3cccc(OCC#N)c3C[C@H]2C[C@H]1O [Form I, 2-(((1R,2R,3aS,9aS)-2-hydroxy-1-((S)-3-hydroxyoctyl)-2,3,3a,4,9,9a-hexahydro-1H-cyclopenta[b]naphthalen-5-yl)oxy)acetonitrile] | no other crystalline forms or degraded products of impurities | – |
| CCCCC[C@H](O)CC[C@@H]1[C@H]2Cc3cccc(OCC#N)c3C[C@H]2C[C@H]1O [Form II, 2-(((1R,2R,3aS,9aS)-2-hydroxy-1-((S)-3-hydroxyoctyl)-2,3,3a,4,9,9a-hexahydro-1H-cyclopenta[b]naphthalen-5-yl)oxy)acetonitrile] | – | convert to Form I crystal |
